Converted amounts (≈) assume the structure as drawn.
What was measured:
[1] = Lipophilicity, logD of the compound; type: physicochemical; conditions: octanol/water
[2] = Solubility of the compound in FaSSIF at pH 6.5 incubated for 4 to 24 hrs by LC/MS analysis; type: physicochemical; conditions: time 4-24 hrs
[3] = Apparent permeability of the compound in human Caco-2 cells at 25 umol/L incubated for 2 hrs by LC/MS/MS analysis; type: ADME, cell-based; conditions: dose 25 µmol/L
[4] = biological target: T1, NACHT, LRR and PYD domains-containing protein 3 (Homo sapiens, UniProt Q96P20); assay: Inhibition of NLRP3 in LPS/nigericin-induced human THP-1 cells assessed as inhibition of IL-1beta production pretreated with LPS for 3 hrs followed by incubation with compound for 15 mins and later stimulated with nigericin for 90 mins by AlphaLISA assay; type: cell-based
[5] = Plasma protein binding in human by equilibrium dialysis method; type: ADME, cell-free; conditions: read-out: PPB (converted)
[6] = biological target: T1, NACHT, LRR and PYD domains-containing protein 3; assay: Inhibition of NLRP3 in human whole blood assessed as inhibition of IL-1beta production pretreated with LPS for 3 hrs followed by incubation with compound for 0.5 hrs and later incubated with ATP for 1.5 hrs by AlphaLISA assay; type: tissue-based
[7] = Metabolic stability in rat liver microsomes assessed as compound remaining incubated for 60 mins; type: ADME, Microsome; conditions: read-out: Stability
[8] = Total body clearance in Sprague-Dawley rat at 0.3 mg/kg, iv measured for 25 hrs; type: ADME, organism-based; conditions: in vivo
[9] = Metabolic stability in dog liver microsomes assessed as compound remaining incubated for 60 mins; type: ADME, Canis lupus familiaris, Microsome; conditions: read-out: Stability
[10] = Cmax in Sprague-Dawley rat at 1 mg/kg, po measured for 25 hrs; type: ADME, organism-based; parameters: dose 1 mg/kg, time 25 hrs, route po; conditions: in vivo
[11] = Oral bioavailability in Sprague-Dawley rat at 1 mg/kg measured for 25 hrs; type: ADME, organism-based; conditions: in vivo
[12] = Plasma protein binding in mouse by equilibrium dialysis method; type: ADME, cell-free; conditions: read-out: PPB (converted)
Mus musculus [13] = assay: Anti-inflammatory activity against adriamycin-induced glomerulonephritis BALB/c mouse model assessed as decrease in urine albumin-to-creatinine ratio administered orally for 2 weeks and measured for 24 hrs; type: functional, organism-based; conditions: dose 30-300 mg/kg, route po, time 15.0 day
[14] = Mean residence time in Sprague-Dawley rat at 1 mg/kg, po; type: ADME, organism-based; conditions: in vivo
[15] = Metabolic stability in human liver microsomes assessed as compound remaining incubated for 60 mins; type: ADME, Microsome; conditions: read-out: Stability
[16] = Volume of distribution at steady state in Sprague-Dawley rat at 0.3 mg/kg, iv measured for 25 hrs; type: ADME, organism-based; conditions: in vivo, read-out: Vdss
Mus musculus [17] = assay: Anti-inflammatory activity against LPS-stimulated C57BL/6J mouse assessed as reduction in IL-1beta level administered orally pretreated for 0.5 hrs before LPS challenge and measured after 4 hrs by ELISA; type: functional, organism-based; conditions: dose 1-10 mg/kg, route po, time 4.5 hrs
[18] = Plasma protein binding in rat by equilibrium dialysis method; type: ADME, cell-free; conditions: read-out: PPB (converted)
[19] = Metabolic stability in mouse liver microsomes assessed as compound remaining incubated for 60 mins; type: ADME, Microsome; conditions: read-out: Stability
THP-1 = assay: cells; conditions: Homo sapiens
Description: Inhibition of pyroptosis in human THP-1 cells pretreated with LPS for 3 hrs followed by incubation with compound for 15 mins and later stimulated with nigericin for 90 mins by CytoTox-Glo assay

[20] = Mean residence time in Sprague-Dawley rat at 0.3 mg/kg, iv; type: ADME, organism-based; conditions: in vivo
[21] = biological target: NLR family CARD domain-containing protein 4 (Homo sapiens, UniProt Q9NPP4); assay: Inhibition of NLRC4 (unknown origin) in PMA-differentiated human THP-1 cells assessed as inhibition of IL-1 beta production pretreated for 15 mins followed by flagellin stimulation and measured after 18 hrs by AlphaLISA assay; type: cell-based
Cytochrome P450 3A4 = Cytochrome P450 3A4 (Homo sapiens, UniProt P08684); assay: Inhibition of CYP3A4 in human liver microsomes using testosterone and midazolam as substrates by LC-MS/MS analysis; type: ADME, Microsome
Chain of Cytochrome P450 3A4 (P08684 whole entry): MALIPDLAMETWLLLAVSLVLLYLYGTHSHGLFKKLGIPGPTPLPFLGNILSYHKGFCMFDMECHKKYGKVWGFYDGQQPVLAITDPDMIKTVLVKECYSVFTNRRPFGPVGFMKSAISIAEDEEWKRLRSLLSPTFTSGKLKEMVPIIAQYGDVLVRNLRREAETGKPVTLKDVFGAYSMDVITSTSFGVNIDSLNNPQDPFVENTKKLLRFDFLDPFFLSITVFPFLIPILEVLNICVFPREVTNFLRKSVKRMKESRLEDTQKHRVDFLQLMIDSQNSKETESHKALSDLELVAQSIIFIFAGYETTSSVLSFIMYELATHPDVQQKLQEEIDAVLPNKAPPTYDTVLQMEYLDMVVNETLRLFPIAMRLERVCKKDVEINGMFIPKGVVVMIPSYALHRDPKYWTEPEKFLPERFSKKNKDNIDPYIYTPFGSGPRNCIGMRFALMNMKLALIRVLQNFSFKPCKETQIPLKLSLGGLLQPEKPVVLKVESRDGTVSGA

T1 sequence (Q96P20 whole entry, the tested form may be a part): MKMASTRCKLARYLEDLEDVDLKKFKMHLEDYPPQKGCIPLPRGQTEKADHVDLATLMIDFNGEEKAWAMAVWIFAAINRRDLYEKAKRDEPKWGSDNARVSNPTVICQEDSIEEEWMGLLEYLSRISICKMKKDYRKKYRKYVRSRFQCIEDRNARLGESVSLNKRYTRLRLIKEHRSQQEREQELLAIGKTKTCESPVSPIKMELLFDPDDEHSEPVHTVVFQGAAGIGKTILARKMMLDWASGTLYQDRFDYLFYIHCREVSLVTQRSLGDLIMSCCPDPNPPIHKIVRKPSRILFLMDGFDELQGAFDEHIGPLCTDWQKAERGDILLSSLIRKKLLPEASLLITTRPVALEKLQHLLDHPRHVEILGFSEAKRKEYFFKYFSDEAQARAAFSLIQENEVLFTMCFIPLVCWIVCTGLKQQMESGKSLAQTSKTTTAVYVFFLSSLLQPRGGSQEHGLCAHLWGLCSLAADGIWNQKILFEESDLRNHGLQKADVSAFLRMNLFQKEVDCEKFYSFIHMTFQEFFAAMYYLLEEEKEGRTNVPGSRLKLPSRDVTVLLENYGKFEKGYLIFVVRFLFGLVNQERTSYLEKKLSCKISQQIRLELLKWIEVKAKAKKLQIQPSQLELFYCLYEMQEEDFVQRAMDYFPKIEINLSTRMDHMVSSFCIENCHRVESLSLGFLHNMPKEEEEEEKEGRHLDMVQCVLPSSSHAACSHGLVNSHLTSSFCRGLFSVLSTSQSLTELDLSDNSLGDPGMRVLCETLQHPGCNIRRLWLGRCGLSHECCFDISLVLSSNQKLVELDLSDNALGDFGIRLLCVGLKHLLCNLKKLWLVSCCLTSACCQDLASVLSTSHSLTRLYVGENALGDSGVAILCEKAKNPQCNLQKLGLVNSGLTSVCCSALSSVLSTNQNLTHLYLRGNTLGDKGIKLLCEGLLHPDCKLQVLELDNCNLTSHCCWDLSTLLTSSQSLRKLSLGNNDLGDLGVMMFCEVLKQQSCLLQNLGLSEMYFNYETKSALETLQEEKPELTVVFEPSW
Chain of NLR family CARD domain-containing protein 4 (Q9NPP4 whole entry, the tested form may be a part): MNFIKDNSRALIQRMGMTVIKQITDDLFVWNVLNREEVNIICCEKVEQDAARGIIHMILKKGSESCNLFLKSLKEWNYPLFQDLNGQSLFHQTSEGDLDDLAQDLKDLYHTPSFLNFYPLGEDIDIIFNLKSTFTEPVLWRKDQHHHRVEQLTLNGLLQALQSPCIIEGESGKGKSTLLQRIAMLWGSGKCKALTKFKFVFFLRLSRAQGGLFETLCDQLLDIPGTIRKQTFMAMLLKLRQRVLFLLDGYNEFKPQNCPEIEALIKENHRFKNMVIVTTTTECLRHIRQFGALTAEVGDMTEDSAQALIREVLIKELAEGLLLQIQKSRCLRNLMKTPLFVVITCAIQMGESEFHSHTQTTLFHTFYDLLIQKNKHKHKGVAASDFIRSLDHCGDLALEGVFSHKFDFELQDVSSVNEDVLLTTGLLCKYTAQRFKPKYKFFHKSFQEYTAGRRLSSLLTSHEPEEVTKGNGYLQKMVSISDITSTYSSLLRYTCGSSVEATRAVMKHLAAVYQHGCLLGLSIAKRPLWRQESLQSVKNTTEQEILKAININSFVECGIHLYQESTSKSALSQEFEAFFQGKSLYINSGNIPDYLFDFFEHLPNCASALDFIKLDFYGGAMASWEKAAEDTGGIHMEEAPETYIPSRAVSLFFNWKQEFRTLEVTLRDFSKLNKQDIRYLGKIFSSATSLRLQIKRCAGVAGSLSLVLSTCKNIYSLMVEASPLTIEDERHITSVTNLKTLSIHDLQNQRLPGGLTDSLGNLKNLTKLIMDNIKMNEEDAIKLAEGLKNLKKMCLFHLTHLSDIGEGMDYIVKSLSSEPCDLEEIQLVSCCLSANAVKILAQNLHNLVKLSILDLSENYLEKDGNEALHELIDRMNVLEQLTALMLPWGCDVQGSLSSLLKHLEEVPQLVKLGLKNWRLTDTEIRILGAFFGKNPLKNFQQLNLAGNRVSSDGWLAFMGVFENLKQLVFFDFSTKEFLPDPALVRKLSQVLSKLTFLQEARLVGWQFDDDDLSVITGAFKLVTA

| Compound | logD [1] | solubility [2] | IC50 [4] | also measured |
| --- | --- | --- | --- | --- |
| CN(C)S(=O)(=O)NC(=O)c1cnc(Nc2c3c(cc4c2CCC4)CCC3)o1 | 2.3 | > 475 µM | – | Papp at 2 h, 25 µM [3]: 1.2 ×10⁻⁶ cm/s |
| CCOC(=O)c1cnc(Nc2c3c(cc4c2CCC4)CCC3)s1 | – | – | > 30 µM | – |
| CNC(=O)c1cnc(Nc2c3c(cc4c2CCC4)CCC3)o1 | – | 43.9 µM (≈ 13.1 µg/mL) | > 30 µM | – |
| CC(=O)N1CCCN(S(=O)(=O)NC(=O)c2coc(Nc3cc(C(F)(F)F)ccc3C)n2)CC1 | 2.2 | – | – | fraction unbound [5]: 0.018 |
| Cc1ccc(C)c(Nc2nc(C(=O)NS(=O)(=O)N(C)C)co2)c1 | 2 | – | 0.51 µM | IC50 [6]: 11 µM |
| CCOC(=O)c1cnc(Nc2c3c(cc4c2CCC4)CCC3)o1 | 4.6 | 11.1 µM (≈ 3.47 µg/mL) | – | – |
| Cc1ccc(C2CCC2)cc1Nc1nc(C(=O)NS(=O)(=O)N(C)C)co1 | 2.9 | – | – | – |
| COC(=O)[C@@H]1CCCN1C(=O)Nc1c2c(cc3c1CCC3)CCC2 | – | – | > 10 µM | – |
| CN(C)S(=O)(=O)NC(=O)c1coc(Nc2c3c(cc4c2CCC4)CCC3)n1 | 2.8 | 436 µM (≈ 170 µg/mL) | – | IC50 [6]: 7.8 µM; Papp at 2 h, 25 µM [3]: 48.5 ×10⁻⁶ cm/s |
| Cc1ccc(C(F)(F)F)cc1Nc1nc(C(=O)NS(=O)(=O)N2CCCN(S(C)(=O)=O)CC2)co1 | 2.4 | – | – | fraction unbound [5]: 0.011 |
| Cc1ccc(C(C)(C)C)cc1Nc1nc(C(=O)NS(=O)(=O)N(C)C)co1 | 3 | – | – | IC50 [6]: 7.7 µM |
| COC(=O)[C@H]1CCCN1C(=O)Nc1c2c(cc3c1CCC3)CCC2 | – | – | > 10 µM | – |
| Cc1ccc(C(F)(F)F)cc1Nc1nc(C(=O)NS(=O)(=O)N(C)C)co1 | 2.4 | – | – | fraction unbound [5]: 0.004 |
| CS(=O)(=O)NC(=O)c1cnc(Nc2c3c(cc4c2CCC4)CCC3)o1 | 2.1 | 475 µM (≈ 172 µg/mL) | 6.8 µM | Papp at 2 h, 25 µM [3]: 0.13 ×10⁻⁶ cm/s |
| CC(C)c1ccc2c(c1Nc1nc(C(=O)NS(=O)(=O)N(C)C)co1)CCC2 | 2.9 | – | – | IC50 [6]: 5.8 µM |
| Cc1ccc(C(F)(F)F)cc1Nc1nc(C(=O)NS(=O)(=O)N(C)C(C)C)co1 | 3.3 | – | – | fraction unbound [5]: < 0.001 |
| CCOC(=O)c1cnc(Nc2c3c(cc4c2CCC4)CCC3)[nH]1 | – | – | > 30 µM | – |
| NC(=O)c1cnc(Nc2c3c(cc4c2CCC4)CCC3)o1 | – | 45.6 µM (≈ 12.9 µg/mL) | > 30 µM | – |
| COC(=O)CN1CC(=O)N(c2c3c(cc4c2CCC4)CCC3)C1=O | – | – | > 30 µM | – |
| COC(=O)c1ccnc(Nc2c3c(cc4c2CCC4)CCC3)n1 | – | – | > 30 µM | – |
| Cc1ccc(C(C)C)cc1Nc1nc(C(=O)NS(=O)(=O)N(C)C)co1 | 2.7 | – | 0.14 µM | IC50 [6]: 6.8 µM |
| Cc1ccc(C(F)(F)F)cc1Nc1nc(C(=O)NS(=O)(=O)N2CCCCC2)co1 | 3.1 | – | – | fraction unbound [5]: < 0.001 |
| O=C(O)c1cnc(Nc2c3c(cc4c2CCC4)CCC3)o1 | 1.8 | 442 µM (≈ 126 µg/mL) | 2.4 µM | Papp at 2 h, 25 µM [3]: 4 ×10⁻⁶ cm/s |
| CN1CCN(C(=O)c2cnc(Nc3c4c(cc5c3CCC5)CCC4)o2)S1(=O)=O | 3.8 | 18.1 µM (≈ 7.28 µg/mL) | – | Papp at 2 h, 25 µM [3]: 15.5 ×10⁻⁶ cm/s |
| CCOC(=O)c1nnc(Nc2c3c(cc4c2CCC4)CCC3)o1 | – | – | 8.9 µM | – |
| Cc1ccc(C(F)(F)F)cc1Nc1nc(C(=O)NS(=O)(=O)N2CCCOCC2)co1 | 2.4 | 444 µM (≈ 199 µg/mL) | – | remaining at 1 h [7]: 90.3%; clearance [8]: 1 mL/min/kg; remaining at 1 h [9]: 90%; Cmax [10]: 3.8 µM; bioavailability [11]: 121%; fraction unbound [12]: 0.062; Activity (Mus musculus [13]): Dose-Dependent Effect; fraction unbound [5]: 0.009; MRT [14]: 6.3 h; remaining at 1 h [15]: 71.2%; Vd [16]: 0.28 L/kg; Activity (Mus musculus [17]): Dose-Dependent Effect; fraction unbound [18]: 0.034; remaining at 1 h [19]: 45.5%; Papp at 2 h, 25 µM [3]: 27.8 ×10⁻⁶ cm/s; IC50 (THP-1): 0.028 µM; MRT [20]: 4.7 h; IC50 [21]: > 30 µM; IC50 (Cytochrome P450 3A4): > 10 µM |
| Cc1ccc(C(F)(F)F)cc1Nc1nc(C(=O)NS(=O)(=O)N2CCOCC2)co1 | 2.2 | – | 0.038 µM | IC50 [6]: 8 µM; fraction unbound [5]: < 0.001 |
| Cc1ccc2c(c1Nc1nc(C(=O)NS(=O)(=O)N(C)C)co1)CCC2 | 2.3 | – | – | IC50 [6]: 18 µM |
| Cc1ccc(C(F)(F)F)nc1Nc1nc(C(=O)NS(=O)(=O)N(C)C)co1 | 2.1 | – | – | IC50 [6]: 4.7 µM |

— ChEMBL document CHEMBL5356996, “Discovery of Novel NLRP3 Inflammasome Inhibitors Composed of an Oxazole Scaffold Bearing an Acylsulfamide” (ACS Med Chem Lett, 2023)
